Source: US8389500B2, “Fused heterocyclic compounds as ion channel modulators” (Gilead Sciences, Inc., priority 2008, dated 2013)

What follows are molecules tested against T1, wild-type human cardiac sodium channel, hNav1.5 (late sodium current) (Homo sapiens, UniProt Q14524) (assay: Late INa screening assay (PatchXpress whole cell patch clamp)). Conditions: 1 μM test compound; HEK293 hNav1.5; late INa generated with 10 μM Tefluthrin (some experiments 50 nM ATX II); read-out: Late INa % blk (1 μM test cmpd).
T1 construct: host or cells: HEK293
Assay type: cell-based
Procedure: The late sodium current (Late INa) and peak sodium current (Peak INa) assays are performed on an automated electrophysiology platform, PatchXpress 7000A (MDS Analytical Technologies, Sunnyvale, Calif.), which uses the whole cell patch clamp technique to measure currents through the cell membrane of up to 16 cells at a time. The assay uses an HEK293 (human embryonic kidney) cell line heterologously expressing the wild-type human cardiac sodium channel, hNav1.5, purchased from Millipore (Billerica, Mass.). No beta subunits were coexpressed with the Na channel alpha subunit. Cells are maintained with standard tissue culture procedures and stable channel expression is maintained with 400 μg/ml Geneticin in the culture medium. […] Experiments are carried out at 24-27° C.
For both the Late INa and Peak INa assays, series resistance compensation is set to 50% and whole-cell compensation is performed automatically. […] Currents through open sodium channels are automatically recorded and stored in the DataXpress2 database (MDS Analytical Technologies, Sunnyvale, Calif.). Analysis is performed using DataXpress2 analysis software and data are compiled in Excel.
Compound stocks are routinely made in glass vials to 10 mM in dimethyl sulfoxide (DMSO). In some cases, when compounds are not soluble in DMSO, they are made in 100% ethanol. Stocks are sonicated as necessary. The extracellular solution for screening Late INa is composed of: 140 mM NaCl, 4 mM KCl, 1.8 mM CaCl2, 0.75 mM MgCl2, and 5 mM HEPES with pH adjusted to 7.4 using NaOH. The extracellular solution for screening Peak INa is composed of: 20 mM NaCl, 120 mM N-methyl-D glucamine, 4 mM KCl, 1.8 mM CaCl2, 0.75 mM MgCl2, and 5 mM HEPES with pH adjusted to 7.4 using HCl. The intracellular solution used to perfuse the inside of the cells for both the Late INa and Peak INa assays contains: 120 mM CsF, 20 mM CsCl, 5 mM EGTA, 5 mM HEPES and pH adjusted to 7.4 with CsOH. […] The 0Na extracellular solution used at the end of each experiment for the Late INa and Peak INa assays to measure baseline current contains: 140 mM N-methyl-D-glucamine; 4 mM KCl; 1.8 mM CaCl2; 0.75 mM MgCl2; 5 mM HEPES and pH was adjusted to 7.4 with HCl.
For the Late INa assay, sodium channels are activated every 10 seconds (0.1 Hz) by depolarizing the cell membrane to −20 mV for 250 milliseconds (ms) from a holding potential of −120 mV. In response to a −20 mV voltage step, typical Nav1.5 sodium currents activate rapidly to a peak negative current and then inactivate nearly completely within […].
All compounds are tested to determine their activity in blocking the late sodium current. Late INa current is generated by adding 10 μM Tefluthrin (pyrethroid) to the extracellular solution while recording Na currents For some experiments, 50 nM ATX II (sea anemone toxin), another late Na activator, was used to generate the late component. […] After establishing the whole cell recording configuration, late INa activators are added to each well 4 times over a 16-17 minute period so that the late component of the Na current reaches a stable value. […] Measurements are made at the end of exposure to the third compound addition and values are normalized to the current level when all Na^+ is removed from the extracellular solution after two additions of ONa-ECF. Results are reported as percent block of late INa

T1 sequence (Q14524 whole entry): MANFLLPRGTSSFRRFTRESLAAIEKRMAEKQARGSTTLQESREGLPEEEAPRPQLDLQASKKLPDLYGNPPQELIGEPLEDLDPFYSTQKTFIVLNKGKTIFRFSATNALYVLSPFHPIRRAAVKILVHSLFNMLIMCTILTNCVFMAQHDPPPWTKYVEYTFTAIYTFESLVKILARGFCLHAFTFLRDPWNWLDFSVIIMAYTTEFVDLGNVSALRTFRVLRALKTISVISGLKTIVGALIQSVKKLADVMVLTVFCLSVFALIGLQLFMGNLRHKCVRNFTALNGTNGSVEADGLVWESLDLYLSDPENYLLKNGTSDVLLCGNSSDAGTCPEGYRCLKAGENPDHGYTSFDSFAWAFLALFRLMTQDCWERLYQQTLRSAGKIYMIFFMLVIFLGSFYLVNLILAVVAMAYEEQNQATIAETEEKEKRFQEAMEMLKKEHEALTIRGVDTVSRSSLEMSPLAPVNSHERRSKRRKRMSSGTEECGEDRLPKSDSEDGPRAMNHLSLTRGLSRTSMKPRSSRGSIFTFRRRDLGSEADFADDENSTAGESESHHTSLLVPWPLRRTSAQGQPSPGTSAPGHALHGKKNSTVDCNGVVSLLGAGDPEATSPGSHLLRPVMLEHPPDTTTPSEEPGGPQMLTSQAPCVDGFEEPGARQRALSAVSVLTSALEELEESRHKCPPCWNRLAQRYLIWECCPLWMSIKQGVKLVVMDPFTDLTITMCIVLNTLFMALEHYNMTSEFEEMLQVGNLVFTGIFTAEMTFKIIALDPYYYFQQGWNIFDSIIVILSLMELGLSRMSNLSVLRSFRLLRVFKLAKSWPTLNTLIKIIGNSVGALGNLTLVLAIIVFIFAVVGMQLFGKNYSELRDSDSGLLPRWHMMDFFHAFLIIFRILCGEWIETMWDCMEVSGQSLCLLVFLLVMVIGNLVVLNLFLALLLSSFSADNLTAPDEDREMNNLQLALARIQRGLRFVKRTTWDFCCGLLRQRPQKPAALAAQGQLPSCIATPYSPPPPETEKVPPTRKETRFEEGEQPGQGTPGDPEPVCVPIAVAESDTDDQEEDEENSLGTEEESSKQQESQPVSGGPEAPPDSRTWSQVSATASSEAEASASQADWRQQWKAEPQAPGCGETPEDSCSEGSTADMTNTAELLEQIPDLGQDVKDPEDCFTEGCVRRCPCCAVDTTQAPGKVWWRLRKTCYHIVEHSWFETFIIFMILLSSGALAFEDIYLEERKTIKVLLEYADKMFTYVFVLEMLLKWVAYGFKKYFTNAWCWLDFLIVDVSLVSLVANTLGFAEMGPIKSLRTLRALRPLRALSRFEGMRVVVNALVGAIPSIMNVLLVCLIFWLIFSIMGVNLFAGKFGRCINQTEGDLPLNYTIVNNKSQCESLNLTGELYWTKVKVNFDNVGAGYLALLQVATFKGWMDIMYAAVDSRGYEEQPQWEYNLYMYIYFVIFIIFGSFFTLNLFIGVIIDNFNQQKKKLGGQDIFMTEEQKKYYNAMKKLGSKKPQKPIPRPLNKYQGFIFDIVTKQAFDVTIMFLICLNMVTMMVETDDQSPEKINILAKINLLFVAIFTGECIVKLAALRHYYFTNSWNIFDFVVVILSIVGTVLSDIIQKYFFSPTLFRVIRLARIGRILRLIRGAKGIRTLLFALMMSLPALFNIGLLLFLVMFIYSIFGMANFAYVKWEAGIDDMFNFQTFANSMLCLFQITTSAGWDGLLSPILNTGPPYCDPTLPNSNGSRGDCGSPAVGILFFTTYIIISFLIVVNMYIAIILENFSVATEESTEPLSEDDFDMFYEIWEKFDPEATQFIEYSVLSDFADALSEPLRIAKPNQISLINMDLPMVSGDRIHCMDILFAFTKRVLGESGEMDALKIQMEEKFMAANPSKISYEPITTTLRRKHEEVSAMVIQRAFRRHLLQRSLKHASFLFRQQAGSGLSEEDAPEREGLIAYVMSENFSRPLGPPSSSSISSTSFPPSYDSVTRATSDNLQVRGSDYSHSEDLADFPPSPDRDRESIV

Row | SMILES | inhibition at 1 µM
1 | CS(=O)(=O)Nc1ccc(-c2cc(C(F)(F)F)cc(C(F)(F)F)c2)c(Cl)c1 [PT-065, N-[2-chloro-3′,5′-bis(trifluoromethyl)biphenyl-4-yl]methanesulfonamide] | 27.8%

Same assay, conditions: 10 μM test compound; HEK293 hNav1.5; late INa generated with 10 μM Tefluthrin (some experiments 50 nM ATX II); read-out: Late INa % blk (10 μM test cmpd)

Row | SMILES | inhibition at 10 µM
2 | CS(=O)(=O)Nc1ccc(-c2cccc(C(F)(F)F)c2)cc1OC(F)(F)F [PT-076, N-[3-(trifluoromethoxy)-3′-(trifluoromethyl)biphenyl-4-yl]methanesulfonamide] | 18.7%
3 | COC(=O)c1ccc(-c2ccc(NS(C)(=O)=O)cc2Cl)cc1 [PT-044, methyl 2′-chloro-4′-[(methylsulfonyl)amino]biphenyl-4-carboxylate] | 50.6%
4 | O=S(=O)(Nc1ccc(-c2ccc(Oc3ccccc3)cc2)cc1OC(F)(F)F)C1CC1 [PT-114, N-[4′-phenoxy-3-(trifluoromethoxy)biphenyl-4-yl]cyclopropanesulfonamide] | 14.1%
5 | CS(=O)(=O)N(Cc1nn[nH]n1)c1ccc(-c2ccc(Cl)c(F)c2)c(Cl)c1 [PT-064, N-(2,4′-dichloro-3′-fluorobiphenyl-4-yl)-N-(2H-tetrazol-5-ylmethyl)methanesulfonamide] | 30.5%
6 | CS(=O)(=O)Nc1ccc(-c2ccc(C(F)(F)F)cc2)c(N)c1 [PT-164, N-(2-amino-4′-(trifluoromethyl)biphenyl-4-yl)methanesulfonamide] | 12.2%
7 | CS(=O)(=O)Nc1cccc(-c2ccc(C(F)(F)F)c(F)c2)c1 [PT-132, N-(3′-fluoro-4′-(trifluoromethyl)biphenyl-3-yl)methanesulfonamide] | 65.9%
8 | Cc1cc(N(Cc2ccc(C(=O)O)cc2)S(C)(=O)=O)ccc1-c1ccc(OC(C)C)cc1 [PT-146, 4-((N-(4′-isopropoxy-2-methylbiphenyl-4-yl)methylsulfonamido)methyl)benzoic acid] | 3.65%
9 | CC(C)(C)OC(=O)CN(c1ccc(-c2ccc(F)c(Cl)c2)c(Cl)c1)S(C)(=O)=O [PT-102, tert-butyl N-(2,3′-dichloro-4′-fluorobiphenyl-4-yl)-N-(methylsulfonyl)glycinate] | 53.6%
10 | CS(=O)(=O)Nc1ccc(-c2ccc(Oc3ccccc3)cc2)cc1C(=O)O [PT-120, 4-[(methylsulfonyl)amino]-4′-phenoxybiphenyl-3-carboxylic acid] | 27%
11 | COC(=O)c1cc(-c2ccc(C(F)(F)F)cc2)ccc1NS(C)(=O)=O [PT-121, methyl 4-[(methylsulfonyl)amino]-4′-(trifluoromethyl)biphenyl-3-carboxylate] | 40.5%
12 | Cc1cc(NS(=O)(=O)C2CC2)ccc1-c1ccc(OC(C)C)cc1 [PT-151, N-(4′-isopropoxy-2-methylbiphenyl-4-yl)cyclopropanesulfonamide] | 32.6%
13 | CS(=O)(=O)N(CCN1CCOCC1)c1ccc(-c2ccc(Cl)c(F)c2)c(Cl)c1 [PT-061, N-(2,4′-dichloro-3′-fluorobiphenyl-4-yl)-N-[2-(morpholin-4-yl)ethyl]methanesulfonamide] | 20.6%
14 | COc1ccc(NS(C)(=O)=O)cc1-c1cccc(OC(F)(F)F)c1 [PT-109, N-[6-methoxy-3′-(trifluoromethoxy)biphenyl-3-yl]methanesulfonamide] | 35.1%
15 | CS(=O)(=O)Nc1ccc(-c2ccc(F)cc2F)c(Cl)c1 [PT-024, N-(2-chloro-2′,4′-difluorobiphenyl-4-yl)methanesulfonamide] | 43.5%
16 | CS(=O)(=O)Nc1ccc(-c2cc(C(F)(F)F)cc(C(F)(F)F)c2)c(Cl)c1 [PT-065, N-[2-chloro-3′,5′-bis(trifluoromethyl)biphenyl-4-yl]methanesulfonamide] | 85.6%
17 | COc1cc(N(Cc2ccc(C(=O)O)cc2)S(C)(=O)=O)ccc1-c1ccc(Oc2ccccc2)cc1 [PT-134, 4-((N-(2-methoxy-4′-phenoxybiphenyl-4-yl)methylsulfonamido)methyl)benzoic acid] | 3.9%
18 | N#Cc1cc(NS(=O)(=O)C2CC2)ccc1-c1ccc(C(F)(F)F)cc1 [PT-130, N-(2-cyano-4′-(trifluoromethyl)biphenyl-4-yl)cyclopropanesulfonamide] | 26%

Row | SMILES | inhibition at 10 µM
19 | N#Cc1cc(NS(=O)(=O)C2CC2)ccc1-c1ccc(Oc2ccccc2)cc1 [PT-124, N-(2-cyano-4′-phenoxybiphenyl-4-yl)cyclopropanesulfonamide] | 32.2%
20 | CS(=O)(=O)Nc1ccc(-c2cccc(C(F)(F)F)c2)c(F)c1 [PT-079, N-[2-fluoro-3′-(trifluoromethyl)biphenyl-4-yl]methanesulfonamide] | 53.2%
21 | CS(=O)(=O)Nc1ccc(-c2ccc(Cl)c(F)c2)c(F)c1 [PT-059, N-(4′-chloro-2,3′-difluorobiphenyl-4-yl)methanesulfonamide] | 41.3%
22 | Cc1cc(N(Cc2ccc(C(=O)O)cc2)S(C)(=O)=O)ccc1-c1ccc(Oc2ccccc2)c(F)c1 [PT-141, 4-((N-(3′-fluoro-2-methyl-4′-phenoxybiphenyl-4-yl)methylsulfonamido)methyl)benzoic acid] | 23.8%
23 | CS(=O)(=O)Nc1ccc(-c2ccc(Cl)c(F)c2)cc1OC(F)(F)F [PT-074, N-[4′-chloro-3′-fluoro-3-(trifluoromethoxy)biphenyl-4-yl]methanesulfonamide] | 24.2%
24 | CNC(=O)c1cc(N(Cc2ccc(S(C)(=O)=O)cc2)S(C)(=O)=O)ccc1-c1ccc(Oc2ccccc2)cc1 [PT-138, N-methyl-4-(N-(4-(methylsulfonyl)benzyl)methylsulfonamido)-4′-phenoxybiphenyl-2-carboxamide] | 12.6%
25 | CS(=O)(=O)Nc1ccc(-c2ccc(Oc3ccccc3)cc2)cc1OC(F)(F)F [PT-119, N-[4′-phenoxy-3-(trifluoromethoxy)biphenyl-4-yl]methanesulfonamide] | 6.6%
26 | CS(=O)(=O)Nc1ccc(-c2ccccc2OC(F)(F)F)c(C(F)(F)F)c1 [PT-016, N-[2′-(trifluoromethoxy)-2-(trifluoromethyl)biphenyl-4-yl]methanesulfonamide] | 45.8%
27 | CS(=O)(=O)N(CC(=O)O)c1ccc(-c2ccc(Cl)c(F)c2)c(Cl)c1 [PT-092, N-(2,4′-dichloro-3′-fluorobiphenyl-4-yl)-N-(methylsulfonyl)glycine] | -2.4%
28 | CCCS(=O)(=O)Nc1ccc(-c2ccc(Cl)c(F)c2)c(Cl)c1 [PT-027, N-(2,4′-dichloro-3′-fluorobiphenyl-4-yl)propane-1-sulfonamide] | 55.5%
29 | CS(=O)(=O)Nc1ccc(-c2ccc(C(F)(F)F)cc2)cc1OC(F)(F)F [PT-075, N-[3-(trifluoromethoxy)-4′-(trifluoromethyl)biphenyl-4-yl]methanesulfonamide] | 24.4%
30 | CN1CCN(CCN(c2ccc(-c3ccc(Cl)c(F)c3)c(Cl)c2)S(C)(=O)=O)CC1 [PT-063, N-(2,4′-dichloro-3′-fluorobiphenyl-4-yl)-N-[2-(4-methylpiperazin-1-yl)ethyl]methanesulfonamide] | 48.8%
31 | COc1cc(NS(C)(=O)=O)ccc1-c1ccccc1OC(F)(F)F [PT-011, N-[2-methoxy-2′-(trifluoromethoxy)biphenyl-4-yl]methanesulfonamide] | 47.6%
32 | C#Cc1cc(NS(C)(=O)=O)ccc1-c1ccc(Oc2ccccc2)cc1 [PT-129, N-(2-ethynyl-4′-phenoxybiphenyl-4-yl)methanesulfonamide] | 44.4%
33 | COc1cc(N(CC(=O)O)S(C)(=O)=O)ccc1-c1cccc(OC(F)(F)F)c1 [PT-089, N-[2-methoxy-3′-(trifluoromethoxy)biphenyl-4-yl]-N-(methylsulfonyl)glycine] | -4.1%
34 | CS(=O)(=O)Nc1ccc(-c2ccc(Cl)c(F)c2)c(C(F)(F)F)c1 [PT-012, N-[4′-chloro-3′-fluoro-2-(trifluoromethyl)biphenyl-4-yl]methanesulfonamide] | 52%
